Molecules are shown by their SMILES. Like-named read-outs stand apart in the source and are kept apart here. Where a SMILES comes first, the peptide text is derived from it. The star is where a group is joined. Cbz = O=C(OCc1ccccc1)*; CH2F = FC*

The record followed here is US20230219898A1, “COMPOUNDS AND METHODS FOR BLOCKING APOPTOSIS AND INDUCING AUTOPHAGY” (President and Fellows of Harvard College, priority 2020, published 2023).

One test concerns Human Jurkat cells. The test can be described thus: Velcade-induced apoptosis of Jurkat cells, CellTiter-Glo viability. In kind it is cell-based. The settings on record: 24 hours. Here is the method:
Human Jurkat cells were seeded in 96-well plates (20000 cells per well). Different concentrations of the compounds were added one hour prior to Velcade treatment, followed by the addition of 50 nM Velcade. After incubation for 24 hours, cell viability was measured by CellTiter-Glo Luminescent Cell Viability Assay.
(§1) The rates of cell death were measured in triplicate or quadruplicate in a 96-well or 384-well plate by using SYTOX Green Nucleic Acid Stain (Invitrogen) or ToxiLight Non-destructive Cytotoxicity BioAssay Kit (Lonza). The intensity of luminescence was determined in an EnSpire Multimode Plate Reader (PerkinElmer). Cytotoxicity is expressed as percentages of cell death per well after deducting the background signal in non-induced cells and compared to that of the maximal cell death with 100% Lysis Reagent. The rates of cell viability were determined by using CellTiter-Glo Luminescent Cell Viability Assay (Promega) following the manufacturer's protocol and the results are expressed as percentages of luminescence intensity per well after deducting the background signal in blank well and compared to that of the viability in the non-treated wells. Concentration of drugs used for inducing or inhibiting cell death, mTNFα: 1 ng/ml; 5Z-7-Oxozeaenol: 0.5 μM; Velcade: 50 nM; Apt-1/ICCB-19/ICCB-19i/Nec-1s: 10 μM.
On the technique in general: In ATP-based viability assays light output follows the ATP content of the culture.

A further test concerns Murine RGC5(661W) cells. Description: RIPK1-dependent apoptosis (RDA) of RGC5 cells induced by TNFα plus 5Z-7-Oxozeaenol. The settings on record: Mus musculus, 21 hours. Format: cell-based. Here is the method:
Murine RGC5(661W) cells were seeded in 96-well plates (4000 cells per well). Different concentrations of the compounds were added one hour prior to TNFα treatment, followed by the addition of 0.5 ng/ml TNFα plus 0.5 μM 5Z-7-Oxozeaenol to induce RIPK1-dependent apoptosis (RDA). After incubation for 21 hours, cell viability was measured by CellTiter-Glo Luminescent Cell Viability Assay.

In another test the test system is H4 cells. The test can be described thus: Autophagy by LC3II western blotting in H4 cells (FIG. 21). Format: cell-based. Conditions: 10 uM, 1 h pretreatment, 6 h vehicle or 40 mM NH4Cl. Here is the method:
(§2) Wild-type H4 and MEF cells that were pretreated for 1 h with 10 uM of the specified compounds, followed by 6 h treatment with either vehicle or 40 mM NH4Cl. Cell lysates were prepared and immunoblotted for LC3-I and LC3-II. Autophagy was determined by LC3II levels using western blotting.
(A western blot detects proteins with antibodies after separation by electrophoresis.)

The test system of test [1] is cleaved caspase-3 in Jurkat cells. Description: Cleaved caspase-3 immunoblot in Velcade-treated cells. Format: cell-based, human. The settings on record: 10 uM; 12 h 50 nM Velcade. Here is the method:
The levels of cleaved caspase-3 were determined by immunoblotting.
(§3) Specifically, wild-type MEF cells were pretreated for 1 h with 10 uM of the specified compounds, followed by 2 h treatment with 0.5 uM 5z-7-oxozeaenol and 1 ng/mL TNFα. Cell lysates were prepared and immunoblotted for cleaved-caspase 3 (CC3). Wild-type Jurkat cells were also pretreated for 1 h with 10 uM of the specified compounds, followed by 12 h treatment with 50 nM Velcade. Cell lysates were prepared and immunoblotted for cleaved-caspase 3 (CC3).

A further test deals with MEF cells. Description: Autophagy by LC3II western blotting in MEF cells (FIG. 21). In kind it is cell-based, mouse. Conditions: 10 uM, 1 h pretreatment, 6 h vehicle or 40 mM NH4Cl. Here is the method:
as §2

The test system of test [2] is cleaved-caspase 3 (CC3) in MEF cells. The test can be described thus: Cleaved caspase 3 immunoblot in MEF cells treated with 5z-7-oxozeaenol and TNFα (FIG. 22). Format: cell-based, mouse. The settings on record: 10 uM; 2 h 0.5 uM 5z-7-oxozeaenol and 1 ng/mL TNFα. Here is the method: as §3
Another test deals with MEFs. The test can be described thus: RDA in MEFs induced by mTNFα and 5Z-7-Oxozeaenol, cell survival. Format: cell-based, mouse. Conditions: 10 μM. Here is the method: as §1
The test system of another test is H4-GFP-LC3 cells. Description: Autophagy induction, GFP-LC3 puncta and LC3II immunoblotting. In kind it is cell-based. The settings on record: 10 μM, 6 h (zVAD.fmk 20 μM). Here is the method:
Mean ±s.e.m. (n=5). One-way ANOVA, post hoc Dunnett's test.
Autophagy was determined by LC3II levels using immunoblotting. SE=shorter exposure, LE=longer exposure.
Autophagy was measured by LC3II induction and p62 reduction by immunoblotting. The levels of LC3II in cells treated with both Apt-1 and NH4Cl, the latter of which inhibits lysosome, were higher than that treated with either Apt-1 or NH4Cl alone. Thus, ICCB-19/Apt-1, but not ICCB-19i, induce autophagic flux. Mean ±s.e.m. from technical triplicates (n=3), representative of 3 independent experiments. Two-tailed t-test. **P=0.0037.
Levels of LC3II determined by immunoblotting.
Cells were seeded at 2.5×10^4 cells per well on poly-L-lysine coated glass cover slips and transfected as described. Cells were fixed in 4% paraformaldehyde, followed by permeabilization with 0.1% Triton X-100. Nuclei were stained using DAPI (Sigma). Cells expressing GFP or RFP-fusion proteins were imaged with an Olympus Fluoview FV1000 confocal microscope (Olympus) using a 40×objective. For GFP-LC3 and DsRed-FYVE puncta quantification, the average spot intensity in 1000 cells from each indicated sample was determined. Images were processed using ImageJ and Photoshop CC. Concentration of compounds used to induce or block autophagy: 10 μM (Apt-1, ICCB-19, ICCB-19i or Spautin-1), for 6 h or as indicated.

Where [3] appears, read: Table 3, 50 nM Velcade, read-out: Jurkat Velcade IC50/μM.
The mark [4] stands for this setting: Table 3, 0.5 ng/ml TNFα plus 0.5 μM 5Z-7-Oxozeaenol, read-out: RGC5 T/5z7 IC50/μM.
Setting [5] is: Table 1, 50 nM Velcade, read-out: Apoptosis of Jurkat cells induced by Velcade (IC50 μM).
[6] abbreviates: Table 2, 0.5 ng/ml TNFα plus 0.5 μM 5Z-7-Oxozeaenol, read-out: RGC5 T/5z7 IC50.

As to `CCN1CCN=C1SC(C(=O)NC1CCCCCC1)c1ccccc1` (stereo not drawn) [Compound 36], the figures for the IC50 with Human Jurkat cells (setting [3]) and with Murine RGC5(661W) cells (setting [4]) were 1.07 µM and 1.79 µM, respectively. As to `COc1ccc(NC(=O)CSC2=NCCN2)cc1` [Compound 5], the IC50 in the test on Human Jurkat cells (setting [5]) was 46.4 µM. As to `CN1CCN=C1SC(C(=O)NC1CCCCCC1)c1ccccc1Cl` (stereo not drawn) [Compound 34], the figures for the IC50 in the test on Human Jurkat cells (setting [3]) and with Murine RGC5(661W) cells (setting [4]) were 0.882 µM and 2.21 µM, respectively. As to `O=C(CSC1=NCCN1)NC1CCCC1` [Compound 13], in the test with Murine RGC5(661W) cells (setting [6]), the IC50 is 3.42 µM. For the compound `COc1ccc(CSC(=N)N)cc1[N+](=O)[O-]` [Compound 2], the IC50 in the test with Human Jurkat cells (setting [5]) is 4.4 µM. Regarding `CN(C(=O)CSC1=NCCN1)C1CCCCCC1` [Compound 16], the IC50 in the test with Human Jurkat cells (setting [3]) came to 1.46 µM; in the test with Murine RGC5(661W) cells (setting [4]), 8.84 µM. Take `C/N=C(\NC)NCC(=O)N1CCCC1` [Compound 38]: in the test on H4 cells, the “autophagy (LC3II levels) in H4 cells” value is recorded as “induce autophagy”. In test [1], the “cleaved caspase 3 in Jurkat cells” value was “block cleaved caspase 3”. In addition, the “autophagy (LC3II levels) in MEF cells” value in the test on MEF cells is listed as “induce autophagy”. Also, in test [2], the “cleaved caspase 3 in MEF cells” value is listed as “block cleaved caspase 3”.

On to `O=C(CSC1=NCCN1)N1CCc2ccccc21` [ICCB-17], for which the IC50 in the test with Human Jurkat cells (setting [5]) is 13.4 µM.

As to `CN1CCN=C1SC(C(=O)NC(c1ccccc1)c1ccccc1)c1ccccc1` (stereo not drawn) [Compound 42], the IC50 was determined as 1.15 µM in the test on Human Jurkat cells (setting [3]) and 1.57 µM with Murine RGC5(661W) cells (setting [4]).

In the case of `Cc1ccccc1NC(=O)CSC1=NCCN1` [Compound 3], the IC50 with Human Jurkat cells (setting [5]) worked out at 32.1 µM. Same read-out and setting: in the case of `N=C(N)SCc1ccccc1F` [Compound 1] it was 6.2 µM. Still for that read-out and setting: in the case of `N#Cc1ccc(CSC(=N)N)cc1` [Compound 7] it was 6.84 µM. For the compound `CC(SC1=NCCN1C)C(=O)NC1CCCCCC1` (stereo not drawn) [Compound 27], the IC50 in the test with Human Jurkat cells (setting [3]) worked out at 3.06 µM; in the test with Murine RGC5(661W) cells (setting [4]), 2.81 µM.

As to `CC(SC1=NCCN1)C(=O)NC1CCCCCC1` (stereo not drawn) [Compound 18], the IC50 came to 3.66 µM in the test with Human Jurkat cells (setting [3]) and 4.02 µM with Murine RGC5(661W) cells (setting [4]). The like results for `O=C(CSC1=NCCN1)NC(c1ccccc1)c1ccccc1` [Compound 37] were, in that order, 1.17 µM and 3.05 µM.

Turning to `O=C(CSC1=NCCN1)NC1CCC1` [Compound 14], in the test on Murine RGC5(661W) cells (setting [6]), the IC50 is 4.51 µM.

As for `CC(SC1=NCCN1C)C(=O)N(C)C1CCCCCC1` (stereo not drawn) [Compound 28], the IC50 turned out to be 0.953 µM in the test on Human Jurkat cells (setting [3]) and 2.93 µM with Murine RGC5(661W) cells (setting [4]). The like results for `CC(SC1=NCCN1)C(=O)N(C)C1CCCCCC1` (stereo not drawn) [Compound 25] were, in that order, 1.22 µM and 2.87 µM.

In the case of `Cc1ccc(NC(=O)CSC2=NCCN2)cc1` [Compound 4], the IC50 in the test on Human Jurkat cells (setting [5]) came to 10.5 µM. As to `CN1CCN=C1SCC(=O)N(C)C1CCCCCC1` [Compound 26], the IC50 came to 1.99 µM with Human Jurkat cells (setting [3]) and 3.08 µM in the test with Murine RGC5(661W) cells (setting [4]). Regarding `Fc1ccccc1CSC1=NCCN1` [Compound 40], the IC50 in the test with Human Jurkat cells (setting [3]) was 3.23 µM; with Murine RGC5(661W) cells (setting [4]) it was 5.87 µM. Besides, in the test with H4 cells, the “autophagy (LC3II levels) in H4 cells” value is on record as “induce autophagy”. Moreover, the “cleaved caspase 3 in Jurkat cells” value in test [1] is “block cleaved caspase 3”. Besides, in the test with MEF cells, the “autophagy (LC3II levels) in MEF cells” value is given as “induce autophagy”. Moreover, the “cleaved caspase 3 in MEF cells” value in test [2] is listed as “block cleaved caspase 3”.

Regarding `FC(F)=C(F)CCSC1=NCCN1` [Compound 8], in the test on Human Jurkat cells (setting [5]), the IC50 was found to be 17.3 µM. `CC(C)C(SC1=NCCN1C)C(=O)NC1CCCCCC1` (stereo not drawn) [Compound 29]: the IC50 came to 3.87 µM with Human Jurkat cells (setting [3]) and 1.83 µM in the test on Murine RGC5(661W) cells (setting [4]). For the compound `CN1CCN=C1SC(C(=O)NC1CCCCCC1)c1ccc(Cl)cc1` (stereo not drawn) [Compound 35], the IC50 in the test on Human Jurkat cells (setting [3]) is 2.14 µM; in the test on Murine RGC5(661W) cells (setting [4]), 1.6 µM.

On to `O=C(CSC1=NCCN1)NC1CCCCC1` [Compound 12], for which the IC50 with Murine RGC5(661W) cells (setting [6]) was 2.36 µM.

For the compound `CN1CCN=C1SCC(=O)NC1CCCCCC1` [Compound 19], the IC50 in the test with Human Jurkat cells (setting [3]) worked out at 1.8 µM; in the test with Murine RGC5(661W) cells (setting [4]), 3.33 µM.

`CN1C(=O)NC(Cc2c[nH]c3c(Cl)cccc23)C1=O` (stereo not drawn) [Nec-1s, reference compound]: in the test on MEFs, the “protection against RDA models” value is on record as “protected against multiple RDA models”.

Take `CN1CCN=C1SC(C)(C)C(=O)NC1CCCCCC1` [Compound 33]: the IC50 in the test on Human Jurkat cells (setting [3]) was found to be 1.04 µM; in the test on Murine RGC5(661W) cells (setting [4]), 1.67 µM. As to `COC(=O)C[C@H](NC(=O)[C@H](C)NC(=O)[C@@H](NC(=O)OCc1ccccc1)C(C)C)C(=O)CF` [zVAD.fmk, reference compound] (Cbz-Val-Ala-Asp(OMe)-CH2F), the induction of autophagy result in the test on H4-GFP-LC3 cells is recorded as “no effect on autophagy”.
